In ChEMBL document CHEMBL4330144, “A mitochondria-targeted organic arsenical accelerates mitochondrial metabolic disorder and function injury” (Bioorg Med Chem, 2019):

Test system: NB-4
Assay: Induction of mitochondrial membrane potential loss in human NB4 cells by JC1 staining based flow cytometry (reference value: 27.7%)
Assay type: functional

N#CC(C#N)=NNc1cccc(Cl)c1 [CARBONYL CYANIDE M-CHLOROPHENYLHYDRAZONE]
Activity: 93%
